Data reported in patent US20090149397A1, “TREATMENT OF CANCER WITH COMBINATIONS OF TOPOISOMERASE INHIBITORS AND PARP INHIBITORS” (priority 2007, published 2009).

Assays:
[1] = system: human colon, lung, and cervical carcinoma xenograft; test: Human colon, lung and cervical carcinoma xenograft models, BA administration; type: in vivo, nude and SCID mice
[2] = system: human small cell lung cancer SW-2 cells; test: Subcutaneous xenograft model of SCLC, BA plus topotecan; type: in vivo, SCID mice; settings: SW-2 xenograft; for tumor growth delay: topotecan i.p. 0.5, 1 or 2 mg/kg, BA 25 mg/kg/week continuous infusion, BA value in 3 out of 6 animals
Method: The anti-tumor effect of a combination of BA and topotecan, one of the approved drugs for the treatment of small cell lung cancer (SCLC) in humans, is evaluated in an established subcutaneous xenograft model of SCLC. SCID mice (24 animals) are inoculated with human small cell lung cancer SW-2 cells (8×10^6 cells/animal) injected subcutaneously into the right flank of the mice. When the tumors reach about 80 mm^3 in size, the mice are randomly divided into four groups (6 animals per group). The first group of mice is treated with topotecan administered i.p. […] Alzet model osmotic pumps are implanted on days 1, 15, and 29. The pumps are pre-warmed for ˜1 hour at 37° C., and then implanted subcutaneously (s.c.) in the left flanks of isofluoraneanesthetized mice. The third group of mice receives a combination of topotecan and BA, using the same doses and schedules as in groups 1 and 2. A control group of animals receives phosphate-buffered saline (PBS) using the same schedule as the animals in group 2. Tumor growth is monitored by measuring tumor size twice per week. Tumor size is calculated using the formula: length×width×height×(½).

[3] = system: human tumor cells including colon, prostate, cervix, lung, melanoma, lymphoma, and leukemia; test: In vitro proliferation of human tumor cells; type: cell-based

Structure (SMILES)	survival rate of animals ([1]; drug given daily or twice weekly)	tumor growth ([1]; once-daily or twice-weekly administration of BA)	complete tumor regression, number of animals ([2]; out of 6 treated animals per group)	tumor growth delay [2]	inhibition of proliferation of human tumor cells [3]
NC(=O)c1ccc(I)c([N+](=O)[O-])c1 [BA, 4-iodo-3-nitrobenzamide]	positively affects the survival rate	inhibits tumor growth	3 animals	34 days	inhibits the proliferation
CC[C@@]1(O)C(=O)OCc2c1cc1n(c2=O)Cc2cc3c(CN(C)C)c(O)ccc3nc2-1 [topotecan, reference compound]	–	–	–	12 days	–
